Patent publication EP1146866B1, “A METHOD FOR TREATING PATIENTS WITH ACNE BY ADMINISTERING A CYCLIC GMP PDE INHIBITOR” (priority 1999, dated 2000)

Tests used:
PDE5 = PDE5 (Homo sapiens, UniProt O76074); test: cGMP-specific PDE inhibition activity (3H cyclic GMP substrate); format: biochemical
Procedure: (§1) cGMP-specific phosphodiesterase activity can be determined using methods known in the art, such as a method using radioactive ^3H cyclic GMP (cyclic 3',5'-guanosine monophosphate) as the substrate for PDE5 enzyme (Thompson, W.J., Teraski, W.L., Epstein, P.M., Strada, S.J., Advances in Cyclic Nucleotide Research, 10:69-92, 1979. Using such techniques, the values of cGMP-specific inhibition set forth in Table 1 were determined for the compounds above: TABLE 1

PDE2 = PDE2 (Homo sapiens, UniProt O00408); test: cGMP-stimulated PDE inhibition activity; format: biochemical
Procedure: as §1
cGMP phosphodiesterase activity can be determined using the methods referenced in Example 5, above. Using such techniques, the IC50 value for the inhibition of PDE2 by the compound of Example 1, exisulind, was determined as shown in Table 2.

acne vulgaris = test: Clinical results with a patient with acne vulgaris; format: in vivo, human
Procedure: A patient with acne vulgaris was given a pharmaceutical composition containing 125 mg of a cGMP-specific PDE inhibitor, exisulind (the compound of Example 1), twice daily for 8 weeks. […] Since the patient was tolerating that daily dose quite well, their dose of exisulind was increased to 150 mg twice daily, for an additional 8 weeks.
The pharmaceutical formulation for the 150 mg-containing pharmaceutical composition taken by this patient contained exisulind (150 mg), lactose monohydrate (207 mg), croscarmellose sodium (15 mg), colloidal silicon dioxide (1 mg), magnesium stearate (6.3 mg), and sodium lauryl sulfate (0.7 mg) encapsulated in a # 1 gelatin capsule. The exisulind was obtained from Zambon Group, S.p.A., of Milan, Italy. The pharmaceutical formulation for the 125 mg containing composition was formulated with less exisulind, and more excipients to fill the capsule.

[1] = Clinical studies of exisulind for uses other than acne (tolerability); format: in vivo
Procedure: In studies with adult patients, patients with intact colons received exisulind at a dosage of 400 mg/day, and patients who had previously undergone a colectomy received exisulind at a dosage of 600 mg/day. In another study with adult patients, the patients received 500 mg/day of exisulind. In a study involving pediatric patients, the dosage of exisulind used ranged from 250 to 350 mg per day.
In these studies, exisulind is generally well tolerated in patients. […] The maximum tolerated dose (MTD) was determined to be 600 mg/day in patients with colectomies, and 400 mg/day in the group with intact colons. […] These elevations were completely reversible on stopping the drug. Additionally, after a patient with elevated liver enzymes stops receiving the drug for approximately one week, the patient can then safely resume treatment at the same or a lower therapeutic dose, i.e. the dosages mentioned above. The elevations seem to be dose related and have been seen mostly at doses above the maximum tolerated dose. […] Thirteen of those patients received exisulind for over three years.

PDE2, sequence (O00408 whole entry): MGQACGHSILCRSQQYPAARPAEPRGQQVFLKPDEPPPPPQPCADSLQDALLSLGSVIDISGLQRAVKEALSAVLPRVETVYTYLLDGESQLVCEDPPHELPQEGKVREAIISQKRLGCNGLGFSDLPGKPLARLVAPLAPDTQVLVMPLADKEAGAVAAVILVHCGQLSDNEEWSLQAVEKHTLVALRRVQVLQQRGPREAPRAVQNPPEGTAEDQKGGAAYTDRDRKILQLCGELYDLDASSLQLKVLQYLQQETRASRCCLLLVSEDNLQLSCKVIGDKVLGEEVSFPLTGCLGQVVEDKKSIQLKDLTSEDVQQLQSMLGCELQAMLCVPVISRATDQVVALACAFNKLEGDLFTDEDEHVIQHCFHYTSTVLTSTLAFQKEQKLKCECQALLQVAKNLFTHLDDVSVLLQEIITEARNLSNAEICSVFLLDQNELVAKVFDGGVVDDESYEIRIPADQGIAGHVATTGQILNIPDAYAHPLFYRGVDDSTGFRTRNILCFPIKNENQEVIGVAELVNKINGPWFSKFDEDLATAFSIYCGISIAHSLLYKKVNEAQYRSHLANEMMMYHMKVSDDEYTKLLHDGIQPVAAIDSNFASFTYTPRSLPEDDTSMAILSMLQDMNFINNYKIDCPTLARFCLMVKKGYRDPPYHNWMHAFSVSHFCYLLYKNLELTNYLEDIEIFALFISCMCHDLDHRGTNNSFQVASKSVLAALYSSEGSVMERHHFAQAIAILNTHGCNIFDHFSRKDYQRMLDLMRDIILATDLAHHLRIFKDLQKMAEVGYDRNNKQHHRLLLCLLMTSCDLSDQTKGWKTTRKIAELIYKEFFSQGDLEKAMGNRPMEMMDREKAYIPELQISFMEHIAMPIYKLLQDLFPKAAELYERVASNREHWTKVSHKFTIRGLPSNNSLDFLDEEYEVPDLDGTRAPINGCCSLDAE

| SMILES | inhibition at 10 µM (PDE5) [%] | IC50 (PDE2) [µM] | patient's acne (acne vulgaris; 150 mg twice daily for an additional 8 weeks, end of second 8-week period) | adverse side effects reported by patient (acne vulgaris; after 125 mg then 150 mg twice daily, 8 weeks each) | manifestations of acne during continued treatment (acne vulgaris; continued on drug for six months) | patient's acne (intensity) (acne vulgaris; patient, 125 mg twice daily for 8 weeks) | maximum tolerated dose (MTD) ([1]; group with intact colons) [mg/day] | liver function tests ([1]; human, in vivo) | side effects in clinical studies ([1]; human, in vivo) | side effects on extended treatment ([1]; human, in vivo) | maximum tolerated dose (MTD) ([1]; patients with colectomies) [mg/day] |
| --- | --- | --- | --- | --- | --- | --- | --- | --- | --- | --- | --- |
| CC1=C(CC(=O)O)c2cc(F)ccc2/C1=C\c1ccc(S(C)(=O)=O)cc1 [Example 1, α-(1-p-Methylsulfonylbenzylidene)-2-Methyl-5-Fluoro-3-Indenyl-Acetic Acid] | 39 | 300 | disappeared completely | no adverse side effects | without any significant manifestations of acne | decrease noticeably in intensity | 400 | moderate, reversible, asymptomatic elevation in liver function tests | no clinically relevant side effects reported | no such clinically significant side effects | 600 |
| CC1=C(CCO)c2cc(F)ccc2/C1=C\c1ccc(S(C)(=O)=O)cc1 [Example 3, (Z)-5-Fluoro-2-Methyl-1-(4-Methylsulfonylbenzylidene)-1H-3-Indenyl-(2-Hydroxy) Ethane] | 80 | – | – | – | – | – | – | – | – | – | – |
| COC(=O)CC1=C(C)/C(=C/c2ccc(S(C)(=O)=O)cc2)c2ccc(F)cc21 [Example 2, α-(1-p-Methylsulfonylbenzylidene)-2-Methyl-5-Fluoro-3-Indenyl -Acetic Acid Methyl Ester] | 50 | – | – | – | – | – | – | – | – | – | – |
